Measurements from the NIST ThermoML archive (doi:10.1016/j.fluid.2012.08.023).
Numbers after ± are expanded uncertainties.

Settings: Liquid, Closed cell (Static) method

Row | Structure (SMILES) | vapor or sublimation pressure (268.13 K) [kPa] | vapor or sublimation pressure (278.36 K) [kPa] | vapor or sublimation pressure (288.16 K) [kPa] | vapor or sublimation pressure (298.13 K) [kPa]
1 | FC(F)(F)C(F)(F)C(F)(F)C(F)(F)F [decafluorobutane] | 91 ± 12 | 134.6 ± 12 | 192.9 ± 12 | 268.8 ± 12
2 | C=C [ethene] | 3648.5 ± 22 | 4611.2 ± 26 | – | –
